Measurements reported in article PMC6009892, “A novel series of pyrazole-platinum(II) complexes as potential anti-cancer agents that induce cell cycle arrest and apoptosis in breast cancer cells” (Journal of Enzyme Inhibition and Medicinal Chemistry, 2018).

Assays:
[1] = test system: human G1/S-specific cyclin D1 in MCF-7 cells; experiment: Cyclin D1 ELISA in cell lysates, MCF-7; assay type: cell-based; conditions: MCF-7, 20 μM, 24 h; untreated cells 2.6 ng/ml
Description: (§1) Cell lysates: Briefly, trypsinised cells were washed three times with cold PBS and centrifuged at 1000 g for 5 min at 4 °C. The cells (1 × 10^6) were suspended in lysis buffer for whole cell lysates. After centrifugation, the supernatants were frozen immediately at −70 °C. The concentration of human G1/S-specific cyclin D1 was measured. Cells without addition of compounds were treated as controls.
(§2) Determination of human G1/S-specific cyclin D1: The high sensitivity assay kit (EIAab) was used to determine the concentration of human G1/S-specific cyclin D1 in cell lysates. The microtiter plate provided in this kit has been pre-coated with an antibody specific to cyclin D1. Standards and samples were added to the appropriate microtiter plate wells. After 2 h of incubation at 37 °C, the plate was incubated with biotin-conjugated antibody for 1 h at 37 °C. Then microplate wells were aspirated and washed three times and then incubated with avidin conjugated to horseradish peroxidase (HRP). Then, a TMB substrate solution was added to each well. […] The enzyme–substrate reaction was terminated by the addition of a sulfuric acid solution and the color change was measured spectrophotometrically at a wavelength of 450 nm ± 2 nm. The concentration of cyclin D1 in the samples was determined by comparing the O.D. of the samples to the standard curve.

[2] = test system: human G1/S-specific cyclin D1 in MDA-MB-231 cells; experiment: Cyclin D1 ELISA in cell lysates, MDA-MB-231; assay type: cell-based; conditions: MDA-MB-231, 20 μM, 24 h
Description: as §1, §2

| Compound | concentration of cyclin D1 [1] [ng/mL] | concentration of cyclin D1 [2] [ng/mL] |
| --- | --- | --- |
| Cc1cc(C)[n+]([Pt-2]2([n+]3c(C)cc(C)n3CO)[N](c3ccc(C(=N)N)cc3)N=[N+](c3ccc(C(=N)N)cc3)[Pt-2]([n+]3c(C)cc(C)n3CO)([n+]3c(C)cc(C)n3CO)[N](c3ccc(C(=N)N)cc3)N=[N+]2c2ccc(C(=N)N)cc2)n1CO.Cl.Cl.Cl.Cl.O.O [PtPz1, [Pt2(N-hydroxymethyl-3,5-dimethylpyrazole)4(berenil)2]·4HCl·2H2O] | 0.8 |  |
| Cc1ccn[nH]1.Cc1ccn[nH]1.Cc1ccn[nH]1.Cc1ccn[nH]1.Cl.Cl.Cl.Cl.N=C(N)c1ccc(N=N[N]([Pt])c2ccc(C(=N)N)cc2)cc1.N=C(N)c1ccc(N=N[N]([Pt])c2ccc(C(=N)N)cc2)cc1.O.O [PtPz5, [Pt2(5-methylpyrazole)4(berenil)2]·4HCl·2H2O] |  | 0.7 |
